# Patent publication US20240239813A1, “KRAS INHIBITORS AND PHARMACEUTICAL USES THEREOF” (RISEN (SUZHOU) PHARMA TECH CO., LTD., priority 2022, published 2024)
# Assays:
# [1] = molecular target: His-tagged Human KRAS^G12D (Homo sapiens (Human), UniProt P01116, G12D); test: HTRF KRAS G12D GTP binding assay; settings: displacement of GTP-Red tracer
# Description: KRAS^G12D was used in this assay.
# The ability of a test compound to bind to KRAS^G12D was measured by using an HTRF KRAS^G12D GTP Binding Kit (Cisbio, 63ADK000CB27PEG). […] 5 μL of compound solution was added to each well after serial dilution, followed by addition of 5 μL of GDP (50 nM) solution. After 30 minutes incubation at room temperature, 1×6His Eu cryptate antibody solution and GTP-Red tracer were added to the plate, then incubated for another 30 minutes. The HTRF signal was measured with a VICTOR Nivo multimode plate reader according to the manufacturer's instructions. The percent inhibition was calculated using the following formula: […]
# (where the “Maximum Signal” are wells containing DMSO without inhibitor; the “Minimum Signal” are wells containing reference inhibitory component (GDP); the “Test compound signal” are wells containing test compound (inhibitor) at established concentrations).
# IC50 was determined by fitting percent inhibition at each inhibitor concentration to the four-parameter nonlinear logistic equation using GraphPad Prism.
# [2] = Microsomal stability assay, mouse liver microsomes; format: in vitro ADME; settings: CD-1, pooled mouse liver microsomes, 0.5 mg/mL protein
# Description: (§1) Test results from this assay were used to determine the metabolic liabilities of test compounds and allow focus on the improvement of drug candidates through structure-activity relationships. Pooled mouse/rat/human liver microsomes were used for this assay
# (§2) In vitro mouse (CD-1, BioIVT)/rat (SD, RILD)/human (Corning) liver microsomal suspensions at 0.5 mg/mL protein and 1.3 mM NADPH, 3.3 mM MgCl2 were pre incubated at 37° C. for 3 mins prior to addition of 0.1 mM test compound solution to give a final incubation concentration of 1 μM. Samples were incubated for 0, 15, 30, 60 minutes at 37° C. on a shaker (the positive control substance was cultured for 0 or 60 minutes). At the end of each incubation time both incubated and control samples were quenched with ice-cold stop solution containing internal standard. All samples were mixed by a plate shaker at 800 rpm for 5 minutes, then centrifuged at 4100 rpm for 15 minutes at 4° C. to precipitate protein. Supernatant was transferred to another 96-well plate, dilution solution was added to each supernatant well, and then each bioanalysis plate was sealed. The samples were mixed by plate shaker at 800 rpm for 5 minutes and then centrifuged at 4° C., 4100 rpm for 5 minutes. All samples were stored at 4° C. before LC-MS/MS analysis.
# (§3) The peak area ratio was converted to the remaining percentages (% Remaining) using the following formula: […]
# (§4) where % Remaining is the compound ratio (compound peak area/internal standard peak area) as a percentage of the 0 minute time point.
# (§5) The ln remaining percent of test articles were plotted against time and the gradient of the line determined; the gradient was converted to elimination rate constant by using the following formula:
# (§6) Elimination rate constant(ke)=−gradient
# (§7) Half time (T1/2) was determined using following formula: […]
# (§8) Hepatic intrinsic clearance (CLint(liver)) was determined by using the following formulas: […]
# (§9) The Intrinsic clearance of selected compounds is depicted in Table 6.
# [3] = Microsomal stability assay, rat liver microsomes; format: in vitro ADME; settings: SD, pooled rat liver microsomes, 0.5 mg/mL protein
# Description: as §1, §2, §3, §4, §5, §6, §7, §8, §9
# [4] = Microsomal stability assay, human liver microsomes; format: in vitro ADME; settings: pooled human liver microsomes, 0.5 mg/mL protein
# Description: as §1, §2, §3, §4, §5, §6, §7, §8, §9
# GP2D = test: Cell proliferation assay (CellTiterGlo), GP2D; format: cell-based; settings: Homo sapiens, 72 hours
# Description: (§10) A cell proliferation assay was used to evaluate inhibition by exemplary compounds. Proliferation assays used human tissue derived cancer cell lines, for example, AsPC-1 (Cobioer, CBP60546), GP2D (Cobioer, CBP60683), NCI-H358 (Cobioer, CBP60544), NCI-H727 (Cobioer, CBP60182), MKN-1 (Cobioer, CBP60486), HCT116 (ATCC, CCL-247), and HT-29 (Cobioer, CBP60011). Signal reflecting cell proliferation was detected with the CellTiterGlo kit (Promega, G7573).
# (§11) Cells were cultured in the growth phase and 3×10^3 cells per well were plated in a 96-well plate (Greiner, 655090). Cells were incubated 24 hours at 37° C. and 5% carbon dioxide in a humidity chamber. Serially diluted exemplary compounds were added to the plate which was then incubated for another 72 hours. Plates were brought to room temperature and an equal volume of CellTiterGlo reagent was added. After 10 minutes incubation at room temperature to stabilize the signal, the luminescent signal was measured on the VICTOR Nivo multimode plate reader according to the manufacturer's instructions. The signal was converted to percent inhibition using the following formula: […]
# (§12) (where the “Maximum Signal” are wells containing DMSO without inhibitor; the “Minimum Signal” are signal of wells recorded at Day 0 prior to commencement of the experiment; the “Test compound signal” are wells containing inhibitor at established concentrations).
# (§13) IC50 was determined by fitting percent inhibition at each inhibitor concentration to the four-parameter nonlinear logistic equation using GraphPad Prism. IC50 (nM) values of selected compounds are depicted in Table 4. “-”: means without measuring; and “ND” means not detected.
# NCI-H358 = test: Cell proliferation assay (CellTiterGlo), NCI-H358; format: cell-based; settings: Homo sapiens, NCI-H358, 72 hours
# Description: as §10, §11, §12, §13
# NCI-H727 = test: Cell proliferation assay (CellTiterGlo), NCI-H727; format: cell-based; settings: Homo sapiens, NCI-H727, 72 hours
# Description: as §10, §11, §12, §13
# MKN-1 = test: Cell proliferation assay (CellTiterGlo), MKN-1; format: cell-based; settings: Homo sapiens, MKN-1, 72 hours
# Description: as §10, §11, §12, §13
# AsPC-1 = test: Cell proliferation assay (CellTiterGlo), AsPC-1; format: cell-based; settings: Homo sapiens, ASPC1, AsPC-1, 72 hours
# Description: as §10, §11, §12, §13
# HCT-116 = test: Cell proliferation assay (CellTiterGlo), HCT-116; format: cell-based; settings: Homo sapiens, HCT-116, 72 hours
# Description: as §10
# (§14) Cells were cultured in the growth phase and 3×10^3 cells per well were plated in a 96-well plate (Greiner, 655090). Cells were incubated 24 hours at 37° C. and 5% carbon dioxide in a humidity chamber. […] After 10 minutes incubation at room temperature to stabilize the signal, the luminescent signal was measured on the VICTOR Nivo multimode plate reader according to the manufacturer's instructions. […]
# as §12
# (§15) IC50 was determined by fitting percent inhibition at each inhibitor concentration to the four-parameter nonlinear logistic equation using GraphPad Prism. […] “-”: means without measuring; and “ND” means not detected.
# HT-29 = test: Cell proliferation assay (CellTiterGlo), HT-29; format: cell-based; settings: Homo sapiens, HT-29, 72 hours
# Description: as §10, §14, §12, §15
# His-tagged Human KRAS^G12D, sequence (P01116-2 other isoform, or with tags, fused parts or gaps G12D): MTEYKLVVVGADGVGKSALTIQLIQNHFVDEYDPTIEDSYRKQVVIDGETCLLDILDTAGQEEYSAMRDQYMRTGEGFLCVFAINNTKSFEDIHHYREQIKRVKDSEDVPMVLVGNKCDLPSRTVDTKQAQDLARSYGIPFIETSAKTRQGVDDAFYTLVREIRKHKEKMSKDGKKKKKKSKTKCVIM
SMILES,IC50 [1],CLint scaled at 1 μM [2],CLint scaled at 1 μM [3],CLint scaled at 1 μM [4],IC50 (GP2D),IC50 (NCI-H358),IC50 (NCI-H727),IC50 (MKN-1),IC50 (AsPC-1),IC50 (HCT-116),IC50 (HT-29)
CCc1c(F)ccc2cc(O)cc(-c3ncc4c(N5CCCC6(CCO6)C5)nc(OCC5(CN(C)C)CC5)nc4c3F)c12 (stereo not shown) [Compound 73],10.7 nM,361 mL/min/kg,51.1 mL/min/kg,32.4 mL/min/kg,–,–,–,–,–,–,–
CCc1c(F)ccc2cc(O)cc(-c3ncc4c(N5C[C@H](O)C[C@H]5C(=O)OC)nc(OC[C@@]56CCCN5C[C@H](F)C6)nc4c3F)c12 [Compound 4],> 1000 nM,–,–,–,1630 nM,6600 nM,4040 nM,7880 nM,–,–,–
CCc1c(F)ccc2cc(O)cc(-c3ncc4c(N5CCC[C@@]6(CCO6)C5)nc(OC[C@@]56CCCN5C[C@H](F)C6)nc4c3F)c12 [Compound 67],–,1280 mL/min/kg,288 mL/min/kg,83.5 mL/min/kg,–,–,–,–,–,–,–
CCc1c(F)ccc2cc(O)cc(-c3ncc4c(N5CC[C@@H](O)C5)nc(OC[C@@]56CCCN5C[C@H](F)C6)nc4c3F)c12 [Compound 1],261 nM,–,–,–,4220 nM,3210 nM,1870 nM,4090 nM,–,–,–
CCc1c(F)ccc2cc(O)cc(-c3ncc4c(N5CCC[C@]6(CCO6)C5)nc(OCC5(CN(CC)CC)CC5)nc4c3F)c12 [Compound 27a],12.7 nM,–,–,–,3.07 nM,40.5 nM,24.8 nM,–,32 nM,–,–
CCc1c(F)ccc2cc(O)cc(-c3ncc4c(N5CCC[C@]6(CCO6)C5)nc(OCC5(CN(C)C)CC5)nc4c3F)c12 [Compound 34a],3.1 nM,255 mL/min/kg,29.2 mL/min/kg,26.3 mL/min/kg,1.4 nM,23.7 nM,13.7 nM,–,21.6 nM,–,–
CCc1c(F)ccc2cc(O)cc(-c3ncc4c(N5CCC[C@H]5C(N)=O)nc(OC[C@@]56CCCN5C[C@H](F)C6)nc4c3F)c12 [Compound 6],1390 nM,–,–,–,–,> 10000 nM,> 10000 nM,> 10000 nM,–,–,–
CCc1c(F)ccc2cc(O)cc(-c3ncc4c(N5CCC[C@]6(CCO6)C5)nc(OCC5(CN6CCC(F)CC6)CC5)nc4c3F)c12 [Compound 29a],4.3 nM,1040 mL/min/kg,410 mL/min/kg,181 mL/min/kg,2.3 nM,25.1 nM,14.7 nM,–,25 nM,–,–
CCc1c(F)ccc2cc(O)cc(-c3ncc4c(N5CCC[C@H]5C(=O)OC)nc(OC[C@@]56CCCN5C[C@H](F)C6)nc4c3F)c12 [Compound 7],> 1000 nM,–,–,–,–,7980 nM,5310 nM,> 10000 nM,–,–,–
CCc1c(F)ccc2cc(O)cc(-c3ncc4c(N5C[C@H](O)C[C@H]5CO)nc(OC[C@@]56CCCN5C[C@H](F)C6)nc4c3F)c12 [Compound 2],185 nM,–,–,–,1320 nM,6320 nM,> 10000 nM,> 10000 nM,–,–,–
CCc1c(F)ccc2cc(O)cc(-c3ncc4c(N5CCC[C@]6(CCO6)C5)nc(OCC5(CN6CCCCC6)CC5)nc4c3F)c12 [Compound 9a],7.9 nM,–,–,–,1.6 nM,18.5 nM,15 nM,–,20.1 nM,–,–
CCc1c(F)ccc2cc(O)cc(-c3ncc4c(N5CCC[C@]6(CCO6)C5)nc(OCC(C)(C)CN(C)C)nc4c3F)c12 [Compound 26a],13.3 nM,–,–,–,4.5 nM,98.5 nM,37.4 nM,–,30.8 nM,–,–
CCc1c(F)ccc2cc(O)cc(-c3ncc4c(N5CCC[C@]6(CCO6)C5)nc(OCC5(CN6CCCC6)CC5)nc4c3F)c12 [Compound 10a],6.9 nM,671 mL/min/kg,46.4 mL/min/kg,42.5 mL/min/kg,1.8 nM,18.7 nM,17 nM,–,16 nM,–,–
CCc1c(F)ccc2cc(O)cc(-c3ncc4c(N5CCCC6(CCO6)C5)nc(OCC5(CN6CCOCC6)CC5)nc4c3F)c12 (stereo not shown) [Compound 2a],18.8 nM,2630 mL/min/kg,887 mL/min/kg,402 mL/min/kg,–,–,–,–,–,–,–
CCc1c(F)ccc2cc(O)cc(-c3ccc4c(N5CCC[C@]6(CCO6)C5)nc(OCC5(CN(C)C)CC5)nc4c3F)c12 [Compound 15a],19.6 nM,371 mL/min/kg,52.9 mL/min/kg,31.8 mL/min/kg,–,–,–,–,–,–,–
CCc1c(F)ccc2cc(O)cc(-c3ncc4c(N5CCC[C@]6(CCO6)C5)nc(OC[C@@]56CCCN5C[C@H](F)C6)nc4c3F)c12 [Compound 68],–,2270 mL/min/kg,311 mL/min/kg,124 mL/min/kg,–,–,–,–,–,–,–
CCc1c(F)ccc2cc(O)cc(-c3ncc4c(N5CCC[C@H]5CO)nc(OC[C@@]56CCCN5C[C@H](F)C6)nc4c3F)c12 [Compound 3],–,–,–,–,1570 nM,1660 nM,1080 nM,1780 nM,–,–,–
CCc1c(F)ccc2cc(O)cc(-c3ncc4c(N5CCC[C@]6(CCO6)C5)nc(OCC5(CN6CCC7(CC6)CC(N6CCC(c8ccc9cnn(C)c9c8)CC6)C7)CC5)nc4c3F)c12 [Compound 19a],16.1 nM,–,–,–,14.1 nM,15.2 nM,–,–,–,–,–
"CCc1c(F)ccc2cc(O)cc(-c3ncc4c(N5CCCC(C)(O)C5)nc(OC[C@@]56CCCN5C[C@H](F)C6)nc4c3F)c12 (stereo partly shown) [Compound A1, reference compound]",–,1180 mL/min/kg,111 mL/min/kg,46 mL/min/kg,15.7 nM,152 nM,130 nM,144 nM,161 nM,1430 nM,7730 nM
